According to ChEMBL document CHEMBL1938263, “Design, synthesis, biological evaluation, and comparative Cox1 and Cox2 docking of p-substituted benzylidenamino phenyl esters of ibuprofenic and mefenamic acids” (Bioorg Med Chem, 2012):

Legend:
Mus musculus [1] = assay: Analgesic activity in mouse assessed as latency time of jumping as nociceptive response at 250 mg/kg, po after 0.5 hrs by hot plate test (reference value: 11.16 +/- 1.66 sec); format: functional
Rattus norvegicus [2] = assay: Ulcerogenic activity in fasted Wistar albino rat assessed as severity of ulcer at 100 mg/kg, po after 5 hrs; format: toxicity, organism-based; set-up: dose 100 mg/kg, route oral; details: in vivo
Mus musculus [3] = assay: Analgesic activity in mouse assessed as latency time of paw licking as nociceptive response at 250 mg/kg, po after 0.5 hrs by hot plate test (reference value: 11.16 +/- 1.66 sec); format: functional
Rattus norvegicus [4] = assay: Antiinflammatory activity in Wistar CF rat assessed as inhibition of carrageenan-induced paw oedema at 100 mg/kg, po administered 1 hr prior to carrageenan-challenge after 2 hrs (reference value: 68.6 +/- 7.14 %); format: functional
Mus musculus [5] = assay: Analgesic activity in mouse assessed as latency time of paw licking as nociceptive response at 250 mg/kg, po after 1.5 hrs by hot plate test (reference value: 16.8 +/- 2.12 sec); format: functional
Mus musculus [6] = assay: Analgesic activity in mouse assessed as latency time of paw licking as nociceptive response at 250 mg/kg, po after 1 hr by hot plate test (reference value: 14.3 +/- 0.99 sec); format: functional
Rattus norvegicus [7] = assay: Antiinflammatory activity in Wistar CF rat assessed as inhibition of carrageenan-induced paw oedema at 100 mg/kg, po administered 1 hr prior to carrageenan-challenge after 4 hrs (reference value: 78.14 +/- 7.1 %); format: functional
Rattus norvegicus [8] = assay: Antiinflammatory activity in Wistar CF rat assessed as inhibition of carrageenan-induced paw oedema at 100 mg/kg, po administered 1 hr prior to carrageenan-challenge after 1 hr (reference value: 55.7 +/- […] %); format: functional
Rattus norvegicus [9] = assay: Antiinflammatory activity in Wistar CF rat assessed as inhibition of carrageenan-induced paw oedema at 100 mg/kg, po administered 1 hr prior to carrageenan-challenge after 3 hrs (reference value: 74.63 +/- 7.13 %); format: functional
Mus musculus [10] = assay: Analgesic activity in mouse assessed as latency time of jumping as nociceptive response at 250 mg/kg, po after 1 hr by hot plate test (reference value: 14.3 +/- 0.99 sec); format: functional
Rattus norvegicus [11] = assay: Ulcerogenic activity in fasted Wistar albino rat assessed as ulcer index at 100 mg/kg, po after 5 hrs; format: toxicity, organism-based; set-up: dose 100 mg/kg, route oral; details: in vivo
Mus musculus [12] = assay: Analgesic activity in mouse assessed as latency time of jumping as nociceptive response at 250 mg/kg, po after 1.5 hrs by hot plate test (reference value: 16.8 +/- 2.12 sec); format: functional

Compound	Time (Mus musculus [1]) [s]	Activity (Rattus norvegicus [2])	Time (Mus musculus [3]) [s]	inhibition in vivo at 100 mg/kg (Rattus norvegicus [4]) [%]	Time (Mus musculus [5]) [s]	Time (Mus musculus [6]) [s]	inhibition in vivo at 100 mg/kg (Rattus norvegicus [7]) [%]	inhibition in vivo at 100 mg/kg (Rattus norvegicus [8]) [%]	inhibition in vivo at 100 mg/kg (Rattus norvegicus [9]) [%]	Time (Mus musculus [10]) [s]	UI (Rattus norvegicus [11])	Time (Mus musculus [12]) [s]
COc1ccc(/C=N/c2ccc(OC(=O)c3ccccc3Nc3cccc(C)c3C)cc2)cc1	21.68	Non-toxic	21.68	49.4	18.46	25.08	62.1	35.2	57	25.08	0	18.46
Cc1cccc(Nc2ccccc2C(=O)Oc2ccc(/N=C/c3ccc(Br)cc3)cc2)c1C	20.72	Non-toxic	20.72	38.5	19.38	21.22	51.7	32	46.5	21.22	0	19.38
CC(C)Cc1ccc(C(C)C(=O)Oc2ccc(/N=C/c3ccc(Br)cc3)cc2)cc1 (stereo not drawn)	19.62	Non-toxic	19.62	40.6	26.12	33.44	49.3	36.5	44.7	33.44	0	26.12
Cc1cccc(Nc2ccccc2C(=O)Oc2ccc(/N=C/c3ccc([N+](=O)[O-])cc3)cc2)c1C	18.04	Non-toxic	18.04	41.1	20.82	25.98	52.5	36.9	43.8	25.98	0	20.82
CC(C)Cc1ccc(C(C)C(=O)O)cc1 (racemic) [IBUPROFEN]	17.84	Toxic	17.84	36.2	19	16.1	44	30	41.8	16.1	4.03	19
CC(C)Cc1ccc(C(C)C(=O)Oc2ccc(/N=C/c3ccc(N(C)C)cc3)cc2)cc1 (stereo not drawn)	22.22	Non-toxic	22.22	96.1	23	32.14	107	71.7	104	32.14	0	23
CC(C)Cc1ccc(C(C)C(=O)Oc2ccc(/N=C/c3ccc([N+](=O)[O-])cc3)cc2)cc1 (stereo not drawn)	23.52	Non-toxic	23.52	44.4	24.98	34.62	53.8	29.9	50.3	34.62	0	24.98
COc1ccc(/C=N/c2ccc(OC(=O)C(C)c3ccc(CC(C)C)cc3)cc2)cc1 (stereo not drawn)	20.18	Non-toxic	20.18	56.2	28.1	35.14	64.7	54	61.2	35.14	0	28.1
Cc1cccc(Nc2ccccc2C(=O)Oc2ccc(/N=C/c3ccc(N(C)C)cc3)cc2)c1C	23.16	Non-toxic	23.16	45.6	15.96	24.4	63.5	41.6	53.4	24.4	0	15.96
